The target in one experiment is SARS-CoV-2 3CLpro (Severe acute respiratory syndrome coronavirus 2, UniProt P0DTD1). The experiment is classed as cell-based.
In experiment [1] the target is SARS-CoV-2 3CLpro (wild-type) (Severe acute respiratory syndrome coronavirus 2, UniProt P0DTD1). It is filed as cell-based.

Take Ac-DEVD-CHO: the “rescue of reporter expression in 3CLpro transfected cells” value on SARS-CoV-2 3CLpro is recorded as “failed to rescue reporter expression”.

Consider Z-FA-FMK, for which the “potency in dose-response validation” value in experiment [1] is “weak to moderate potency”.

Turning to `O=c1c2ccccc2[se]n1-c1ccccc1` [Ebselen], the “inhibition of 3CLpro” value in experiment [1] is on record as “no inhibition”.

Turning to `CCO[C@@H]1OC(=O)C[C@@H]1NC(=O)[C@@H]1CCCN1C(=O)[C@@H](NC(=O)c1ccc(N)c(Cl)c1)C(C)(C)C` [Belnacasan], the “rescue of reporter expression in 3CLpro transfected cells” value at SARS-CoV-2 3CLpro was “failed to rescue reporter expression”.

Regarding `Cc1ccc(NC(=O)c2ccc(CN3CCN(C)CC3)cc2)cc1Nc1nc(-c2cccnc2)cs1` [Masitinib], the “inhibition of 3CLpro” value in experiment [1] is given as “negative”.

Consider `CC(C)(C)NC(=O)N[C@H](C(=O)N1C[C@H]2[C@@H]([C@H]1C(=O)NC(CC1CCC1)C(=O)C(N)=O)C2(C)C)C(C)(C)C` (stereo partly drawn) [Boceprevir], for which the “potency in dose-response validation” value in experiment [1] is recorded as “weak to moderate potency”.

These data come from article PMC10187092 (Emerging Microbes & Infections, 2023).
